Values of other authors as cited in patent publication US20100099775A1, “METHOD FOR AMELIORATING OF POST-ANESTHETIC RECOVERY” (ALPHARX INC., priority 2008, published 2010).

Legend:
patients = settings: 5 mg/kg daily for 4-9 months; three patients
[1] = tested on: Friedreich's Ataxia patients; settings: oral 5 mg/kg daily for 8 weeks
[2] = tested on: cultured cortical neurons; settings: also when applied 30 min after the NMDA pulse
[3] = tested on: patients with cerebrovascular disease; settings: 90 mg daily; nine patients

- Solubility in fixed oils (fixed oils (soy, corn, almond, etc.)): low
- water solubility (water): Low
Structure (SMILES): COC1=C(OC)C(=O)C(CCCCCCCCCCO)=C(C)C1=O [Idebenone, 2,3-dimethoxy-5-methyl-6-(10-hydroxydecyl)-1,4 benzoquinone]
- left ventricular enlargement (patients): reduction
- marker of oxidative DNA damage [1]: significantly decreased
- protection of cortical neurons against necrotic degeneration [2]: rescued cortical neurons
- EEG and clinical symptoms [3]: improvements
